# In patent US10833345B2, “Materials for high-performance aqueous organic redox flow batteries” (UNIVERSITY OF SOUTHERN CALIFORNIA, priority 2016, dated 2020):
# Legend:
# [1] = Cyclic voltammetry of redox couples in alkaline electrolyte; assay type: physicochemical; details: for reduction potential: vs. mercury/mercuric oxide reference electrode (MMO)
# Source text: The redox couples must be soluble in the alkaline electrolyte and must can undergo facile electron transfer.
# The reduction potential for this couple in alkaline electrolyte is about −0.35 V vs. MMO.
# While these compounds are not suitable for operation in acidic media because of the attendant polymerization reactions, these compounds perform well in alkaline media. […] The reduction potentials are quite negative relative to the last example of DHA. Consequently, this may be combined with AQDS to form a redox flow battery.
# The electrochemical reversibility of such a Michael addition-resistant compound is shown in FIG. 29 for benzenedi-hydroxy tetracarboxylic acid also called hydroquinonetetracarboxylic acid (HQTC). […] The reduction potential of HQTC is such that it can be combined with DHA to create a redox flow battery with a cell voltage of 0.5 V (FIG. 30). Further HQTC can also be combined with the molecules from the quinoxaline family, and the flavin family to yield redox flow batteries with the cell voltage in the range of 0.5 to 1 V. 1,2,4-trihydroxyanthraquinone (Purpurin) is claimed to be a negative electrode material suitable for operation in alkaline media.
# [2] = Rotating disk electrode study of hydroxyl-substituted anthraquinones in NaOH; assay type: physicochemical; details: Hydroxy anthraquinones in NaOH
# Source text: Bifunctional redox molecules can also be a molecule with different redox properties in various ranges of potentials. This type of molecule is typified by the substituted hydroxy anthraquinones. In this regard, redox properties of several substituted anthraquinones have been studies. Electrochemistry experiments on the rotating disk electrode confirm the existence of two diffusion limited regions separated by a significant potential difference of 0.5 V to 1.0 V for certain types of substitutions (FIG. 6). For these molecules, two different redox processes occur at different potentials. Those molecules which have hydroxyl substituents in positions such as 1,2- and 1, 4- are particularly suitable for this purpose.
# In Table 2 below we summarize the properties of these types of substituted anthraquinones that can be used on both as positive and negative electrode materials and others that have similar moieties but are not suitable for this type of deployment. The use of these molecules is suitable for use both acidic and alkaline media as shown by the rotating electrode studies.
# [3] = Rate of crossover through NAFION 117 membrane; assay type: physicochemical; details: for concentration appearing by crossover through the membrane: 192 hours; for crossover rate rank order: over 192 hours
# Source text: In another embodiment, compounds for the first redox couple 22 and/or the second redox couple 32 of FIG. 1 that reduce crossover between the anode and cathode compartments are provided. The crossover of the redox active species across the cell is largely determined by the molecular size. Examples of the redox compounds of this embodiment include, but are not limited to, para-toluene sulfonic acid (p-TSA), 2,6-dimethyl-1,4-dihydroxy benzene 3-mono-sulfonic acid, 1,2-dihydroxybenzene-3,5-disulfonic acid (BQDS), and anthraquinone-2,7-disulfonic acid (AQDS). The rate of crossover of the various types of positive electrode materials through a NAFION® 117 membrane was measured. The concentration of p-TSA appearing by crossover through the membrane is found to be much higher than that of the DMDHMS and BQDS (FIG. 6). […] The crossover rate measured over a period of 192 hours provided a rank order of p-TSA>DMDHMS≈BQDS>>AQDS. This rank order correlates with molecular size. The molecules of smaller size will diffuse more readily through the proton conducting membrane. Therefore, it is claimed that by modifying the size of the molecule we can suppress or reduce crossover. The redox active molecules that are prone to crossover may be modified in the size by either applying substituent groups. Such substituent groups can be simple methyl groups, sulfonic acid groups, alkyl groups, branched alkyls such as tertiary butyl, aromatic groups such as phenyl or benzyl groups, multi-ring aromatic groups such as naphthyl, anthracenyl (with or without substituents) amino, quaternary amino, keto, carboxyl and quinone groups. Examples of such redox active molecules with substituents that are enhanced in molecular size include the following compounds having formula II, III, and IV: […]
# [4] = Charge and discharge cycling of organic redox flow cells; details: cell with anthraquinone-2,7-disulfonic acid, 0.5 M each
# Source text: In another embodiment, the effects of crossover can be mitigated by using a mixture of positive and negative electrolyte materials in equimolar quantities at both the electrodes. When such a mixture is charged only the positive electrolyte component will undergo oxidation reaction at the positive electrode and the negative electrolyte material will undergo reduction reactions at the negative electrode. Since the concentration of the redox active species is identical even if crossover occurs, the positive electrolyte material occurred to the negative electrolyte side this change in concentration will be balanced by back diffusion. Thus, there might be self-discharge but no permanent capacity loss or compositional change of the electrolyte. Any two redox couples that qualify as positive and negative electrolyte materials can be mixed in equimolar proportions and used as the electrolyte. We have shown the feasibility of rechargeability of this type of mixed materials using DMDHMS and AQDS (FIG. 8). Nearly 100% of the charge input was returned during discharge.
# Based on the electrode potentials, the DHA can serve as the negative electrolyte and the AQDS can serve as the positive electrolyte. […] The cell was charged and discharged at 8 mA/cm^2. The value of cell voltage was consistent with that expected from the reduction potential of the redox couples. […]
# [5] = Cyclic voltammetry and redox cell states of AMBSA; assay type: physicochemical; details: FIG. 4
# [6] = Crossover rate through NAFION 324 versus NAFION 117 membrane; assay type: physicochemical; details: NAFION 324 (25-micron EW 1500 layer, 150-micron EW 1100 layer) vs NAFION 117 (EW 1100)
# Source text: In a variation, the reduced rate of crossover of the redox active molecules is achieved by using a membrane with a higher equivalent weight of NAFION®. The membrane NAFION® 324, has a 25-micron layer of equivalent weight 1500 and a 150-micron layer of equivalent weight 1100. The crossover rate of DMDHMS through such a membrane is just 0.65 of that through a homogenous NAFION® 117 membrane that has an equivalent weight of 1100 throughout the membrane.
# [7] = alkaline electrolyte, 1 M potassium hydroxide
compound,measurement,setting,value
c1ccc2nccnc2c1 [quinoxaline],electrochemical behavior (cyclic voltammogram),[1]; [7],reversible electrochemical behavior
"O=C1c2ccccc2C(=O)c2c1cc(S(=O)(=O)O)c(O)c2O [1,2-dihydroxy, 3-sulfonic acid anthraquinone]",Di-Couple Potential (yes/no),[2],Yes
same,Di-Couple Potential difference,[2],930 mV
same,E1/2(Volts) vs MMO,[2],−0.75 V
"O=C1c2ccccc2C(=O)c2c1ccc(O)c2O [difference1,2-dihydroxy anthraquinone, 1,2-dihydroxy anthraquinone]",Di-Couple Potential (yes/no),[2],Yes
same,Di-Couple Potential difference,[2],1 V
same,E1/2(Volts) vs MMO,[2],−0.73 V
"O=C1c2ccc(S(=O)(=O)O)cc2C(=O)c2cc(S(=O)(=O)O)ccc21 [AQDS, anthraquinone-2,7-disulfonic acid]",electrochemical behavior (cyclic voltammogram),[1]; 1 M sodium hydroxide,reversible electrochemical behavior
same,reduction potential,[1]; 1 M sodium hydroxide,about −0.35 V
same,concentration appearing by crossover through the membrane,[3],not detected
same,crossover rate rank order,[3],p-TSA>DMDHMS≈BQDS>>AQDS
"O=C1c2cccc(O)c2C(=O)c2cccc(O)c21 [1,5-dihydroxy anthraquinone]",Di-Couple Potential (yes/no),[2],No
same,E1/2(Volts) vs MMO,[2],−0.65 V
"O=C1c2ccc(O)cc2C(=O)c2ccc(O)cc21 [2,6-dihydroxy anthraquinone]",Di-Couple Potential (yes/no),[2],No
same,E1/2(Volts) vs MMO,[2],−0.8 V
"O=S(=O)(O)c1cc(O)c(O)c(S(=O)(=O)O)c1 [BQDS, 1,2-dihydroxybenzene-3,5-disulfonic acid]",crossover rate rank order,[3],p-TSA>DMDHMS≈BQDS>>AQDS
"O=C1c2ccccc2C(=O)c2c(O)ccc(O)c21 [1,4-dihydroxy anthraquinone]",Di-Couple Potential (yes/no),[2],Yes
same,Di-Couple Potential difference,[2],880 mV
same,E1/2(Volts) vs MMO,[2],−0.63 V
"Cc1cc(O)c(C)c(S(=O)(=O)O)c1O [2,5-dimethyl-1,4-dihydroxybenzene-3-sulfonic acid]","resistance to Michael reaction, cycles of charge and discharge",[4],at least 100 cycles
"Cc1ccc(S(=O)(=O)O)cc1 [p-TSA, para-toluene sulfonic acid, reference compound]",concentration appearing by crossover through the membrane,[3],much higher
same,crossover rate rank order,[3],p-TSA>DMDHMS≈BQDS>>AQDS
"O=C1c2ccccc2C(=O)c2cc(Cc3cc(O)cc(S(=O)(=O)O)c3O)ccc21 [AMBSA, 2-anthraquinonemethyl (p-benzoquinol sulfonic acid)]",cyclic voltammogram peaks,[5],two distinct peaks
"Cc1cc(O)c(S(=O)(=O)O)c(C)c1O [DMDHMS, 2,6-dimethyl-1,4-dihydroxybenzene-3-sulfonic acid]",crossover rate rank order,[3],p-TSA>DMDHMS≈BQDS>>AQDS
same,crossover rate through NAFION 324 relative to NAFION 117,[6],0.65
"O=C1c2cccc(O)c2C(=O)c2c(O)cccc21 [DHA, 1,8-dihydroxyanthraquinone]",electrochemical behavior (cyclic voltammogram),[1]; 1 M sodium hydroxide,reversible electrochemical reaction
same,reduction potential,[1]; 1 M sodium hydroxide,about −0.7 V
"O=C1c2ccccc2C(=O)c2c(O)c(O)cc(O)c21 [1,2,4-trihydroxy anthraquinone]",Di-Couple Potential (yes/no),[2],Yes
same,Di-Couple Potential difference,[2],840 mV
same,E1/2(Volts) vs MMO,[2],−0.84 V
"O=C(O)c1c(O)c(C(=O)O)c(C(=O)O)c(O)c1C(=O)O [HQTC, hydroquinonetetracarboxylic acid]",electrochemical behavior (cyclic voltammogram),[1]; [7],reversible electrochemical behavior with two different sets of peaks
